Where two headings read alike, the source gives them in different places.
How the values were obtained:
[1] = system: acutely dissociated and purified rat OPCs; assay: Acute OL differentiation assay (MBP expression/cell, immunofluorescent image quantification); assay type: cell-based; conditions: sheet "All OLga data"
Procedure, shortened: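 This acute differentiation assay used purified rat OPCs from postnatal day 6–7 pups, seeded into PDL/laminin-coated 96-well plates in differentiation medium lacking PDGF and FGF. Compounds were applied in quadruplicate after a 1–2 h preincubation at 37 °C, 10 % CO2, with 0.1 % DMSO negative and 40 ng/ml T3 positive controls in eight wells. After fixation on DIV4, anti-MBP immunofluorescence images yielded MBP expression/cell.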

expanded OPCs = assay: cells; conditions: for viability at 0.1 µM / viability at 1 µM / viability at 10 µM: Rattus norvegicus, 72 h
Procedure, shortened: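 Toxicity screen: compounds added at 0.1, 1 and 10 µM to PDGF-AA-expanded OPCs in 96-well plates, 3-day incubation at 37 °C, 10% CO2, then alamarBlue 1:10 for 4 h with fluorescence readout. Results set screening doses of 10/2, 2/0.4 or 0.4/0.08 µM.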

[2] = test compound at 2 uM, NCC library screen, relative to quetiapine
[3] = test compound at 10 uM, NCC library screen, relative to quetiapine
[4] = alamarBlue viability, NCC library compound at 0.1 µM, sheet "All Tox data"
[5] = alamarBlue viability, NCC library compound at 1 µM, sheet "All Tox data"
[6] = alamarBlue viability, NCC library compound at 10 µM, sheet "All Tox data"
[7] = Rattus norvegicus, 2 uM test compound, relative to quetiapine, read-out: OL differentiation, 2 uM (% Quet)
[8] = Rattus norvegicus, 10 uM test compound, relative to quetiapine, read-out: OL differentiation, 10 uM (% Quet)
[9] = read-out: 0.1 µM (% DMSO), alamarBlue viability of expanded OPCs, compound at 0.1 µM, sheet All Tox data
[10] = read-out: 1 µM (% DMSO), alamarBlue viability of expanded OPCs, compound at 1 µM, sheet All Tox data
[11] = read-out: 10 µM (% DMSO), alamarBlue viability of expanded OPCs, compound at 10 µM, sheet All Tox data
[12] = Rattus norvegicus, test compound at 2 uM, NCC library screen, relative to quetiapine, read-out: 2 uM (% Quet)
[13] = Rattus norvegicus, test compound at 10 uM, NCC library screen, relative to quetiapine, read-out: 10 uM (% Quet)
[14] = alamarBlue viability of expanded OPCs, compound at 0.1 µM, relative to DMSO control
[15] = alamarBlue viability of expanded OPCs, compound at 1 µM, relative to DMSO control
[16] = alamarBlue viability of expanded OPCs, compound at 10 µM, relative to DMSO control
[17] = Rattus norvegicus, 0.4 uM test compound, relative to quetiapine, read-out: OL differentiation, 0.4 uM (% Quet)
[18] = read-out: 0.1 µM (% DMSO), alamarBlue viability, NCC library compound at 0.1 µM, sheet "All Tox data"
[19] = read-out: 1 µM (% DMSO), alamarBlue viability, NCC library compound at 1 µM, sheet "All Tox data"
[20] = read-out: 10 µM (% DMSO), alamarBlue viability, NCC library compound at 10 µM, sheet "All Tox data"
[21] = Rattus norvegicus, test compound at 2 uM, MBP expression relative to quetiapine, NCC library screen, read-out: 2 uM (% Quet)
[22] = Rattus norvegicus, test compound at 10 uM, MBP expression relative to quetiapine, NCC library screen, read-out: 10 uM (% Quet)

## CO[C@H]1O[C@@H]2O[C@@]3(C)CC[C@H]4[C@H](C)CC[C@@H]([C@H]1C)[C@@]24OO3 [Artemethe]
[1]; [2]
  2 uM (% Quet): -5.4 % Quet
[1]; [3]
  10 uM (% Quet): -21.6 % Quet
Expanded OPCs; [4]
  0.1 µM (% DMSO): 81.3 % DMSO
Expanded OPCs; [5]
  1 µM (% DMSO): 76.5 % DMSO
Expanded OPCs; [6]
  10 µM (% DMSO): 77.8 % DMSO

## C[C@H]1[C@H](OC(=O)CCC(=O)O)O[C@@H]2O[C@@]3(C)CC[C@H]4[C@H](C)CC[C@@H]1[C@@]24OO3 [Artesunate]
[1]; [7]
  activation at 2 µM: -39.6%
[1]; [8]
  activation at 10 µM: -122%
Expanded OPCs; [9]
  viability at 0.1 µM: 93.2%
Expanded OPCs; [10]
  viability at 1 µM: 101%
Expanded OPCs; [11]
  viability at 10 µM: 74%

## CC(C)NCC(O)COc1ccc(CC(N)=O)cc1 (centres unmarked) [Atenolol]
[1]; [12]
  activation at 2 µM: 31.5%
[1]; [13]
  activation at 10 µM: 86.2%
Expanded OPCs; [14]
  0.1 µM (% DMSO): 90.5 % DMSO
Expanded OPCs; [15]
  1 µM (% DMSO): 105.2 % DMSO
Expanded OPCs; [16]
  10 µM (% DMSO): 146.2 % DMSO

## CNCC[C@@H](Oc1ccccc1C)c1ccccc1 [Atomoxetine]
[1]; [17]
  activation at 0.4 µM: -17.2%
[1]; [7]
  activation at 2 µM: -20.9%
Expanded OPCs; [9]
  viability at 0.1 µM: 87.4%
Expanded OPCs; [10]
  viability at 1 µM: 74.9%
Expanded OPCs; [11]
  viability at 10 µM: 33.8%

## COc1ccc(CC2c3cc(OC)c(OC)cc3CC[N+]2(C)CCC(=O)OCCCCCOC(=O)CC[N+]2(C)CCc3cc(OC)c(OC)cc3C2Cc2ccc(OC)c(OC)c2)cc1OC (centres unmarked) [Atracurium]
[1]; Rattus norvegicus, test compound at 0.4 uM, NCC library screen, relative to quetiapine, read-out: 0.4 uM (% Quet)
  activation at 0.4 µM: 9.5%
[1]; [12]
  activation at 2 µM: -83%
Expanded OPCs; [18]
  viability at 0.1 µM: 84.6%
Expanded OPCs; [19]
  viability at 1 µM: 75.3%
Expanded OPCs; [20]
  viability at 10 µM: 56.2%

## Nc1ncn([C@@H]2O[C@H](CO)[C@@H](O)[C@H]2O)c(=O)n1 [Azacitidine]
[1]; [21]
  activation at 2 µM: -59.1%
[1]; [22]
  activation at 10 µM: -131%
Expanded OPCs; [14]
  0.1 µM (% DMSO): 92.1 % DMSO
Expanded OPCs; [15]
  1 µM (% DMSO): 66.4 % DMSO
Expanded OPCs; [16]
  10 µM (% DMSO): 57.5 % DMSO

## CN1C(=O)COc2c(C(=O)NC3CN4CCC3CC4)cc(Cl)cc21 (centres unmarked) [Azasetron]
[1]; [7]
  activation at 2 µM: -8.9%
[1]; [8]
  activation at 10 µM: -16.8%
Expanded OPCs; [18]
  viability at 0.1 µM: 94.2%
Expanded OPCs; [19]
  viability at 1 µM: 80.9%
Expanded OPCs; [20]
  viability at 10 µM: 76.8%

## Cn1cnc([N+](=O)[O-])c1Sc1ncnc2nc[nH]c12 [Azathioprine]
[1]; [21]
  activation at 2 µM: -21.2%
[1]; [22]
  activation at 10 µM: -94.3%
Expanded OPCs; [14]
  0.1 µM (% DMSO): 90.4 % DMSO
Expanded OPCs; [15]
  1 µM (% DMSO): 91.6 % DMSO
Expanded OPCs; [16]
  10 µM (% DMSO): 63.6 % DMSO

## O=c1cnn([C@@H]2O[C@H](CO)[C@@H](O)[C@H]2O)c(=O)[nH]1 [Azauridine]
[1]; [2]
  2 uM (% Quet): -8.7 % Quet
[1]; [3]
  10 uM (% Quet): -6.4 % Quet
Expanded OPCs; [4]
  0.1 µM (% DMSO): 94.5 % DMSO
Expanded OPCs; [5]
  1 µM (% DMSO): 93.6 % DMSO
Expanded OPCs; [6]
  10 µM (% DMSO): 80.3 % DMSO

## CN1CCCC(n2nc(Cc3ccc(Cl)cc3)c3ccccc3c2=O)CC1 (centres unmarked) [Azelastine]
[1]; [17]
  activation at 0.4 µM: 1%
[1]; [7]
  activation at 2 µM: -19%
Expanded OPCs; [9]
  viability at 0.1 µM: 90.1%
Expanded OPCs; [10]
  viability at 1 µM: 51.5%
Expanded OPCs; [11]
  viability at 10 µM: 12%

## CC[C@H]1OC(=O)[C@H](C)[C@@H](O[C@H]2C[C@@](C)(OC)[C@@H](O)[C@H](C)O2)[C@H](C)[C@@H](O[C@@H]2O[C@H](C)C[C@H](N(C)C)[C@H]2O)[C@](C)(O)C[C@@H](C)CN(C)[C@H](C)[C@@H](O)[C@]1(C)O [Azithromycin]
[1]; Rattus norvegicus, test compound at 0.08 uM, MBP expression relative to quetiapine, NCC library screen, read-out: 0.08 uM (% Quet)
  activation at 0.08 µM: 8.2%
[1]; Rattus norvegicus, test compound at 0.4 uM, MBP expression relative to quetiapine, NCC library screen, read-out: 0.4 uM (% Quet)
  activation at 0.4 µM: -7.2%
Expanded OPCs; [14]
  0.1 µM (% DMSO): 76.1 % DMSO
Expanded OPCs; [15]
  1 µM (% DMSO): 40.6 % DMSO
Expanded OPCs; [16]
  10 µM (% DMSO): 25.1 % DMSO

## CC1(C)O[C@@H]2C[C@H]3[C@@H]4CCC5=CC(=O)C=C[C@]5(C)[C@@]4(F)[C@@H](O)C[C@]3(C)[C@]2(C(=O)CO)O1 [Azmacort]
[1]; [21]
  activation at 2 µM: 24.2%
[1]; [22]
  activation at 10 µM: -114%
Expanded OPCs; [14]
  0.1 µM (% DMSO): 95.7 % DMSO
Expanded OPCs; [15]
  1 µM (% DMSO): 95.0 % DMSO
Expanded OPCs; [16]
  10 µM (% DMSO): 69.5 % DMSO

## O=C(O)CCNC(=O)c1ccc(/N=N/c2ccc(O)c(C(=O)O)c2)cc1 [Balsalazide]
[1]; [12]
  activation at 2 µM: 10.7%
[1]; [13]
  activation at 10 µM: 19.1%
Expanded OPCs; [18]
  viability at 0.1 µM: 88.1%
Expanded OPCs; [19]
  viability at 1 µM: 92%
Expanded OPCs; [20]
  viability at 10 µM: 85.1%
